Read-outs that look alike come from different tables or passages of the source.
Tests used:
[1] = molecular target: T1, human EHMT2 913-1193 (Homo sapiens, UniProt Q96KQ7); assay: biochemical
T1 construct: recombinant purified human EHMT2 913-1193, Viva; purchased Viva
T1 sequence (Q96KQ7 913-1193): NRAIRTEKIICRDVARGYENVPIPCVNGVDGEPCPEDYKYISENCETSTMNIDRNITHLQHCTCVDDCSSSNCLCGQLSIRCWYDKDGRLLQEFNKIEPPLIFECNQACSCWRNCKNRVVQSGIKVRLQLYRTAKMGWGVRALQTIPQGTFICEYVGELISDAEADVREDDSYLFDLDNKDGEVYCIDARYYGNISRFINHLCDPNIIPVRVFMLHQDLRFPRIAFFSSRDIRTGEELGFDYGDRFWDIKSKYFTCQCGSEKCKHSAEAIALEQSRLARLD
Text: Biotinylated histone peptides were synthesized by Biopeptide and HPLC-purified to >95% purity. Streptavidin Flashplates and seals were purchased from PerkinElmer and 384 Well V-bottom Polypropylene Plates were from Greiner. ^3H-labeled S-adenosylmethionine (^3H-SAM) was obtained from American Radiolabeled Chemicals with a specific activity of 80 Ci/mmol. Unlabeled SAM and S-adenosylhomocysteine (SAH) were obtained from American Radiolabeled Chemicals and Sigma-Aldrich respectively. […] 384-well Flashplates and 96-well filter binding plates were read on a TopCount microplate reader (PerkinElmer). Compound serial dilutions were performed on a Freedom EVO (Tecan) and spotted into assay plates using a Thermo Scientific Matrix PlateMate (Thermo Scientific). Reagent cocktails were added by Multidrop Combi (Thermo Scientific).
General Procedure for EHMT2 Enzyme Assay on Histone Peptide Substrate. 10-point curves of test compounds were made on a Freedom EVO (Tecan) using serial 3-fold dilutions in DMSO, beginning at 2.5 mM (final top concentration of compound was 50 μM and the DMSO was 2%). A 1 μL aliquot of the inhibitor dilution series was spotted in a polypropylene 384-well V-bottom plate (Greiner) using a Thermo Scientific Matrix PlateMate (Thermo Scientific). […] Reactions were incubated for 60 minutes at room temperature and quenched with 10 μL per well of 400 μM unlabeled SAM, then transferred to a 384-well streptavidin Flashplate (PerkinElmer) and washed in a Biotek ELx-405 well washer with 0.1% Tween after 60 minutes. 384-well Flashplates were read on a TopCount microplate reader (PerkinElmer).

[2] = molecular target: T2, EHMT1 (Homo sapiens, UniProt Q9H9B1); assay: EHMT1 PEP; type: biochemical
T2 sequence (Q9H9B1 1-1298): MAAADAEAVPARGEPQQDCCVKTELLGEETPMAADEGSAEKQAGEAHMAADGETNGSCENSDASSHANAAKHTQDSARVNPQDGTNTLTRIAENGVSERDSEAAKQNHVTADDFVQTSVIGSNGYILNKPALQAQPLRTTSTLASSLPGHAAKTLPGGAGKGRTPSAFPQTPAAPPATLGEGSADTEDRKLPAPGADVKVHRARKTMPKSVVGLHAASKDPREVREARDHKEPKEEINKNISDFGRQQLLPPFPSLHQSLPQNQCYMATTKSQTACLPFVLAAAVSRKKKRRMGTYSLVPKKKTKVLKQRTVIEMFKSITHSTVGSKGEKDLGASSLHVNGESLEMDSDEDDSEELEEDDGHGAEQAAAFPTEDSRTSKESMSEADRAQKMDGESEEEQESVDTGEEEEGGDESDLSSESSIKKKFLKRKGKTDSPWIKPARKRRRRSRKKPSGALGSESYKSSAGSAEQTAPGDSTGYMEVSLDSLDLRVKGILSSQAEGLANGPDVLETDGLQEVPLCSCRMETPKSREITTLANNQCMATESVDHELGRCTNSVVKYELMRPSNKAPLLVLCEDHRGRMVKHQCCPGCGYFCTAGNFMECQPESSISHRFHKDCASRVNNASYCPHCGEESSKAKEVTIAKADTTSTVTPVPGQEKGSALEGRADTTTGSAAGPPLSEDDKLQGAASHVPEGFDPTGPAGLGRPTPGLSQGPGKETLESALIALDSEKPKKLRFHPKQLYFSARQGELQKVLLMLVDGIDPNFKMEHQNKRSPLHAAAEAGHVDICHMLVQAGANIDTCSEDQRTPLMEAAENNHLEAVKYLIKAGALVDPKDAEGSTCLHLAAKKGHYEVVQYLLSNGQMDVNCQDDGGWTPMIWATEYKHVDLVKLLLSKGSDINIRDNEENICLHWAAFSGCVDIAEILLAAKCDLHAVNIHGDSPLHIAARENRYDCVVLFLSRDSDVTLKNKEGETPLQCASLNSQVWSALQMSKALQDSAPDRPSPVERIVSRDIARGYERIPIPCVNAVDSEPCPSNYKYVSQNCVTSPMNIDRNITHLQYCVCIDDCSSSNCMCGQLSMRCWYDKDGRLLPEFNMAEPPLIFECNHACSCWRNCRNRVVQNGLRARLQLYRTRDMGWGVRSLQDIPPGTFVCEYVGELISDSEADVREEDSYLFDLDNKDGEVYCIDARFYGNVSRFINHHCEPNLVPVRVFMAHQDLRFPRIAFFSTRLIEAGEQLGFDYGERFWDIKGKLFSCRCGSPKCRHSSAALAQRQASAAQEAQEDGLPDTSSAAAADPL

[3] = recombinant human EHMT2 913-1193, histone H3 1-15 peptide, 3H-SAM, balanced conditions, read-out: EHMT2 PEP (IC50 μM)

| Compound | IC50 [1, 3] [µM] | IC50 [2] [µM] | IC50 [1] [µM] |
| --- | --- | --- | --- |
| CCNC1=Nc2cc(CNCCN3CCCC3)c(OC)cc2C12CCC2 [Compound 71] | < 0.1 | < 0.1 |  |
| COc1cc2c(cc1OCCCN1CCCC1)nc(NCC(F)(F)F)n2C [Compound 12, 6-methoxy-1-methyl-5-(3-(pyrrolidin-1-yl)propoxy)-N-(2,2,2-trifluoroethyl)-1H-benzo[d]imidazol-2-amine] | 1 to 10 | 1 to 10 |  |
| COc1cc2[nH]c(N)nc2cc1OCCCN1CCCC1 [Compound 1, 6-methoxy-5-(3-(pyrrolidin-1-yl)propoxy)-1H-benzo[d]imidazol-2-amine] | < 0.1 | < 0.1 |  |
| COc1cc2sc(N)nc2cc1OCCCN1CCCC1 [Compound 6, 6-methoxy-5-[3-(pyrrolidin-1-yl)propoxy]-1,3-benzothiazol-2-amine] | 1 to 10 | 1 to 10 |  |
| COc1cc2c(cc1C#CCN1CCCC1)N=C(N)C21CCC1 [Compound 24, 5′-methoxy-6′-(3-(pyrrolidin-1-yl)prop-1-yn-1-yl)spiro[cyclobutane-1,3′-indol]-2′-amine] | < 0.1 | < 0.1 |  |
| CNc1nc2cc(CNCCN3CCCC3)c(OC)cc2n1C(C)C [Compound 40] | 0.1 to 1 | < 0.1 |  |
| CNc1nc2cc(CNCCN3CCCC3)c(Cl)cc2n1C(C)C [Compound 138] | 1 to 10 | 0.1 to 1 |  |
| CCCNC1=Nc2cc(CNCCN3CCCC3)c(OC)cc2C12CCC2 [Compound 73] | < 0.1 | < 0.1 |  |
| CNC1=Nc2cc(C#CC(C)N3CCCCC3)c(OC)cc2C12CCC2 (stereo not drawn) [Compound 92] | < 0.1 | < 0.1 |  |
| COc1cc2c(cc1OCCCN1CCCC1)N=C(N)C21CCOCC1 [Compound 5, 5-methoxy-6-(3-(pyrrolidin-1-yl)propoxy)-2′,3′,5′,6′-tetrahydrospiro[indole-3,4′-pyran]-2-amine] | < 0.1 | < 0.1 |  |
| CNC1=Nc2cc(C#C[C@@H](C)N3CCCC3)c(OC)cc2C12CCC2 [Compound 86] | 0.1 to 1 | 0.1 to 1 |  |
| COCCNC1=Nc2cc(C#CCN3CCCCC3)c(OC)cc2C12CCC2 [Compound 99] | < 0.1 | < 0.1 |  |
| CNC1=Nc2cc(C#CC(C)N3CCCC3)c(OC)cc2C12CCC2 (stereo not drawn) [Compound 84] | < 0.1 | < 0.1 |  |
| COc1cc2c(cc1OCCCN1CCCC1)N=C(N)C21CCOC1 (stereo not drawn) [Compound 7, 5′-methoxy-6′-(3-(pyrrolidin-1-yl)propoxy)-4,5-dihydro-2H-spiro[furan-3,3′-indol]-2′-amine] |  | < 0.1 | < 0.1 |
| CNC1=Nc2cc(CNCCN3CCCC3)c(OC)cc2C12CCC2 [Compound 70] | < 0.1 | < 0.1 |  |
| CNC1=Nc2cc(C#CCN3CCC(F)C3)c(OC)cc2C12CCC2 (stereo not drawn) [Compound 100] | 0.1 to 1 | 0.1 to 1 |  |
| CNC1=Nc2cc(C#CCN3CCCC3)c(OC)cc2C12CCC2 [Compound 74] | < 0.1 | < 0.1 |  |
| COc1cc2c(cc1CNCCN1CCCC1)N=C(NC1CCOCC1)C21CCC1 [Compound 76] | 1 to 10 | 1 to 10 |  |
| CNc1nc2cc(CNCCN3CCCC3)c(C)cc2n1C(C)C [Compound 139] | 1 to 10 | 0.1 to 1 |  |
| CCn1c(NC)nc2cc(CNCCN3CCCC3)c(OC)cc21 [Compound 41] | < 0.1 | < 0.1 |  |
| CNC1=Nc2cc(C#CCN3CCCCC3)c(OC)cc2C12CCC2 [Compound 75, 5′-methoxy-N-methyl-6′-(3-(piperidin-1-yl)prop-1-yn-1-yl)spiro[cyclobutane-1,3′-indol]-2′-amine] | < 0.1 | < 0.1 |  |

The next lines start with results.

| IC50 [1, 3] [µM] | IC50 [2] [µM] | Compound | IC50 [1] [µM] |
| --- | --- | --- | --- |
| < 0.1 | < 0.1 | CCNc1nc2cc(OCCCN3CCCC3)c(OC)cc2n1CC [Compound 39] |  |
| < 0.1 | < 0.1 | CCn1c(NC)nc2cc(OCCCN3CCCC3)c(OC)cc21 [Compound 42] |  |
| 1 to 10 | 1 to 10 | COc1cc2c(cc1OCCCN1CCCC1)nc(C)n2C [Compound 21, 6-methoxy-1,2-dimethyl-5-(3-(pyrrolidin-1-yl)propoxy)-1H-benzo[d]imidazole] |  |
| 0.1 to 1 | 0.1 to 1 | COc1cc2c(cc1OC[C@H](O)CN1CCCC1)nc(NC(C)C)n2C [Compound 32] |  |
| 1 to 10 | 1 to 10 | COc1cc2c(cc1OC[C@H](O)CN1CCCC1)nc(NC1CCOCC1)n2C [Compound 35] |  |
| 0.1 to 1 | 1 to 10 | COc1cc2c(cc1OCCCN1CCCC1)nc(C)n2C1CCCC1 [Compound 23, 1-cyclopentyl-6-methoxy-2-methyl-5-(3-(pyrrolidin-1-yl)propoxy)-1H-benzo[d]imidazole] |  |
| 0.1 to 1 | 0.1 to 1 | COc1cc2c(cc1OCCCN1CCCC1)nc(NC1CCCC1)n2C [Compound 30] |  |
| 1 to 10 | 1 to 10 | COc1cc2c(cc1OCCCN1CCCC1)nc(C1CCCC1)n2C [Compound 22, 2-cyclopentyl-6-methoxy-1-methyl-5-(3-(pyrrolidin-1-yl)propoxy)-1H-benzo[d]imidazole] |  |
| < 0.1 | < 0.1 | CNc1nc2cc(CNCCN3CCCC3)c(OC)cc2n1C [Compound 37] |  |
| 0.1 to 1 | 0.1 to 1 | COc1cc2c(cc1OC[C@H](O)CN1CCCC1)nc(NC1CCCC1)n2C [Compound 33] |  |
| < 0.1 | < 0.1 | CNc1nc2cc(OCCCN3CCCC3)c(OC)cc2n1C1CCOCC1 [Compound 13, 6-methoxy-N-methyl-5-(3-(pyrrolidin-1-yl)propoxy)-1-(tetrahydro-2H-pyran-4-yl)-1H-benzo[d]imidazol-2-amine] |  |
| < 0.1 | < 0.1 | COc1cc2c(cc1OCCCN1CCCC1)nc(N)n2C [Compound 2, 6-methoxy-1-methyl-5-(3-(pyrrolidin-1-yl)propoxy)-1H-benzo[d]imidazol-2-amine] |  |
| < 0.1 | < 0.1 | COc1cc2c(cc1OCCCN1CCCC1)nc(N)n2C(C)C [Compound 19] |  |
| 0.1 to 1 | < 0.1 | CCNc1nc2cc(OC[C@H](O)CN3CCCC3)c(OC)cc2n1C [Compound 31] |  |
| 0.1 to 1 | < 0.1 | CNc1nc2cc(OC[C@H](O)CN3CCC3)c(OC)cc2n1C [Compound 25] |  |
| 0.1 to 1 | < 0.1 | CNc1nc2cc(OC[C@H](O)CN3CCCC3)c(OC)cc2n1C [Compound 26] |  |
| < 0.1 | < 0.1 | CNc1nc2cc(OC[C@H](O)CN3CCCC3)c(OC)cc2n1C1CCCC1 [Compound 38] |  |
| 0.1 to 1 | 0.1 to 1 | COc1cc2c(cc1OCCCN1CCCC1)nc(N)n2CC1CCOCC1 [Compound 18] |  |

Reference: US20220274961A1, “SUBSTITUTED FUSED BI- OR TRI- HETEROCYCLIC COMPOUNDS AS EHMT2 INHIBITORS” (priority 2016, published 2022)
